# Like-named read-outs stand apart in the source and are kept apart here.
# Legend:
# [1] = molecular target: T1, THP-1 cell NLRP3 (Homo sapiens, UniProt Q96P20); experiment: Inhibitory activity against cell NLRP3 inflammasomes in THP-1 cells (LPS + nigericin, ELISA of supernatant); assay type: cell-based; settings: PMA-differentiated THP-1 cells, LPS 500 ng/mL 3 h, compound 1 h, nigericin 30 min; human IL-10 (so in the source) in supernatant by ELISA
# T1 construct: endogenous in cells; host or cells: THP-1 cells, PMA-differentiated, stimulated with LPS and nigericin
# Description: Experimental Example 1: Assay for Inhibitory Activity of Compounds Disclosed Herein Against Cell NLRP3 Inflammasomes
# Test substances: The compounds of the present disclosure, prepared according to the methods described in the examples.
# THP-1 is an immortalized human […] cell line.
# Instrument: microplate reader (made by PE)
# Assay Method: 1. THP-1 cells were cultured in 1640 complete medium (500 mL of 1640+56 mL of FBS+560 μL of 1000×P/S+2 μL of mercaptoethanol), and cells at passages 3-20 were used.
# 2. Culture plate coating: 100 μL of polylysine solution was added to a 96-well cell culture plate. After 30 min of incubation at 37° C., the solution was discarded, and the plate was washed with PBS twice for later use.
# 3. Induction of THP-1 differentiation: THP-1 cells were resuspended in an appropriate amount of complete medium containing 10 ng/mL PMA to form a cell suspension with a density of 5×10^5 cells/mL. The suspension was added to the 96-well plate at 100 μL/well, and the plate was incubated overnight in a 37° C. carbon dioxide cell incubator for 16 h.
# 4. Stimulation of THP-1: • a. Serum-free THP-1 culture medium containing LPS was added, with the final concentration being 500 ng/mL. The plate was incubated in a 37° C. carbon dioxide cell incubator for 3 h. • b. Mother liquors of the compounds to be tested with gradient concentrations were prepared with DMSO, added to the cells, and well mixed. Dilution was finally performed in a 1:1000 ratio. The plate was incubated in a 37° C. carbon dioxide cell incubator for 1 h. • c. Nigericin was added to each well, with the final concentration being […]. The plate was incubated in a carbon dioxide cell incubator at 37° C. for 30 min. • d. The medium in the wells was transferred to a new culture plate, and after 5 min of centrifugation at 3000 rpm, the supernatant was transferred to a new 96-well plate. • e. The content of human […] in the collected cell culture supernatant samples was determined with a commercial ELISA kit by following the instructions.
# [2] = Pharmacokinetic study in mice; assay type: in vivo, female C57BL/6J mice; settings: female, C57BL/6J, mouse, plasma
# Description: (§1) The compounds were prepared into solutions using a mixed vehicle composed of 5% dimethyl sulfoxide, 20% (30% solutol), and 75% normal saline. The compound solutions were intragastrically administered to female C57BL/6J mice at a dose of 10 mg/kg, and the blood collection time points were: 15 min, 30 min, 1 h, 2 h, 4 h, 6 h, 8 h, and 24 h.
# as §1, with “intravenously injected into” for “intragastrically administered to”, “5” for “10”, “were: 5 min,” for “were:”
# The samples to be tested were taken out from a −80° C. freezer, naturally thawed at room temperature, and then vortexed for 5 min.
# Plasma samples of 10 μL from different individuals were accurately pipetted into 1.5 mL centrifuge tubes.
# 900 μL of a 100 ng/mL internal standard working solution (a solution of tolbutamide in acetonitrile) was added, and the mixture was well mixed.
# After 5 min of vortexing, centrifugation was performed at 12,000 rpm for 5 min.
# 50 μL of the supernatant was accurately pipetted into a 96-well plate to which water was added in advance at 150 μL/well.
# After 5 min of vortexing, LC-MS/MS analysis was performed.
# The results of the test substance concentrations were output by Analyst 1.6.3 of AB Sciex.
# Parameters such as mean, standard deviation, and coefficient of variation (excluding those output directly by Analyst 1.6.3) were calculated using Microsoft Excel. PK parameters were calculated using WinNonlin Phenoix 8.2 software NCA (Tmax was a median).
# T1 sequence (Q96P20 whole entry): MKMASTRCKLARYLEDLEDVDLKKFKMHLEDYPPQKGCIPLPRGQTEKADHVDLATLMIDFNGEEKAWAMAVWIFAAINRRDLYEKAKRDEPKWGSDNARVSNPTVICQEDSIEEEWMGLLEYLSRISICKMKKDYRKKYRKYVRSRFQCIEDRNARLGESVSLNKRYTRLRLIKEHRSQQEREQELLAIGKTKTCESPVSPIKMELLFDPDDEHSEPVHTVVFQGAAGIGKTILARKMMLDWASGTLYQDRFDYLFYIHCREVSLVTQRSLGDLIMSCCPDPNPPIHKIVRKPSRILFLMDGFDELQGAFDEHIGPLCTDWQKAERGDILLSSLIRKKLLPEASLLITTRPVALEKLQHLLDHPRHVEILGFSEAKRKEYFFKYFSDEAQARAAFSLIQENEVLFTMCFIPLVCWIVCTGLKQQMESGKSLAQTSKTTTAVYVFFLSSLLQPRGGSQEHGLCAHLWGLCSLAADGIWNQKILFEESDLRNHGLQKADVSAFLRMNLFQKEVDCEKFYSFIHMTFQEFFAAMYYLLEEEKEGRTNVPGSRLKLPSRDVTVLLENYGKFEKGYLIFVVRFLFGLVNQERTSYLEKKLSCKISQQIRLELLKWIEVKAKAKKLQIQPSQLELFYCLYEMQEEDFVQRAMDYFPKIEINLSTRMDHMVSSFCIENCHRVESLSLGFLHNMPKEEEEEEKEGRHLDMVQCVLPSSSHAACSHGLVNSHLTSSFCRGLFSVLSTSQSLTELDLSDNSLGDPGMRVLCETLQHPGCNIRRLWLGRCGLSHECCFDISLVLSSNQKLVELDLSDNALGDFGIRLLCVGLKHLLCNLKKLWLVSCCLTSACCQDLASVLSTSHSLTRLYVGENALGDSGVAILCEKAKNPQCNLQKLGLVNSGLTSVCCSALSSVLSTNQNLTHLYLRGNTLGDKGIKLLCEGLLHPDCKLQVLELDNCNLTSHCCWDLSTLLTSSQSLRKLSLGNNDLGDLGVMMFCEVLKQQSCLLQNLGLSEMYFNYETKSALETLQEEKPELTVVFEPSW
Compound,IC50 [1] [nM],other results
"C#Cc1ccc(-c2nnc(N[C@@H]3CCCN(CC)C3)nc2C2CC2)c(O)c1 [Compound 92, (R)-2-(5-cyclopropyl-3-((1-ethylpiperidin-3-yl)amino)-1,2,4-triazin-6-yl)-5-ethynylphenol]",0.5,
"[2H]C([2H])([2H])N1CCC[C@@H](Nc2nnc(-c3ccc(C#C)cc3O)c(C3CC3)n2)C1 [Compound 87, (R)-2-(5-cyclopropyl-3-((1-(methyl-d3)piperidin-3-yl)amino)-1,2,4-triazin-6-yl)-5-ethynylphenol]",0.7,
"C#Cc1ccc(-c2nnc(N[C@@H]3CCCN(C4CC4)C3)cc2C2CC2)c(O)c1 [Compound 95, (R)-2-(4-cyclopropyl-6-((1-cyclopropylpiperidin-3-yl)amino)pyridazin-3-yl)-5-ethynylphenol]",0.4,
"C#Cc1ccc(-c2nnc(N[C@@H]3CCCN(C4CC4)C3)nc2C)c(O)c1 [Compound 96, (R)-2-(3-((1-cyclopropylpiperidin-3-yl)amino)-5-methyl-1,2,4-triazin-6-yl)-5-ethynylphenol]",0.5,
"C#Cc1ccc(-c2nnc(N[C@@H]3CCCN(CC)C3)c(=O)n2C2CC2)c(O)c1 [Compound 109, (R)-4-cyclopropyl-6-((1-ethylpiperidin-3-yl)amino)-3-(4-ethynyl-2-hydroxyphenyl)-1,2,4-triazin-5(4H)-one]",16,
"C#Cc1ccc(-c2nnc(N[C@@H]3CCCN(CC)C3)nc2C)c(O)c1 [Compound 91, (R)-2-(3-((1-ethylpiperidin-3-yl)amino)-5-methyl-1,2,4-triazin-6-yl)-5-ethynylphenol]",0.2,
"C#Cc1ccc(-c2nnc(N[C@@H]3CCCN(C)C3)c(=O)n2C(C)C)c(O)c1 [Compound 112, (R)-3-(4-Ethynyl-2-hydroxyphenyl)-4-isopropyl-6-((1-methylpiperidin-3-yl)amino)-1,2,4-triazin-5(4H)-one]",12,
"C#Cc1ccc(-c2nnc(N[C@@H]3CCCN(C4CC4)C3)c(=O)n2C)c(O)c1 [Compound 98, (R)-6-((1-cyclopropylpiperidin-3-yl)amino)-3-(4-ethynyl-2-hydroxyphenyl)-4-methyl-1,2,4-triazin-5(4H)-one]",5,
"C#Cc1ccc(-c2nnc(N[C@@H]3CCCN(CC)C3)cc2C2CC2)c(O)c1 [Compound 90, (R)-2-(4-cyclopropyl-6-((1-ethylpiperidin-3-yl)amino)pyridazin-3-yl)-5-ethynylphenol]",0.4,"AUC(0-t) ([2]; iv 5 mg/kg, read-out: AUClast iv (0-24 h)): 4020 ng·h/mL; clearance ([2]; iv 5 mg/kg, read-out: Cl—obs iv (clearance rate) (converted)): 20.7 mL/min/kg; Vd ([2]; iv 5 mg/kg, read-out: Vss iv (distribution volume)): 6.23 L/kg; half-life ([2]; iv 5 mg/kg, read-out: tz1/2 iv (terminal half-life) (converted)): 3.23 h; bioavailability ([2]; po 10 mg/kg vs iv 5 mg/kg, read-out: F% (absolute bioavailability)): 94.5%; Tmax ([2]; po 10 mg/kg, median, read-out: Tmax po (time to peak plasma concentration)): 2 h; AUC(0-t) ([2]; po 10 mg/kg, read-out: AUClast po (0-24 h)): 7580 ng·h/mL; Cmax ([2]; po 10 mg/kg, read-out: Cmax po (peak concentration)): 900 ng/mL; half-life ([2]; po 10 mg/kg, read-out: tz1/2 po (terminal half-life) (converted)): 3.33 h"
"C#Cc1ccc(-c2nnc(N[C@@H]3CCCN(C4CC4)C3)nc2C2CC2)c(O)c1 [Compound 97, (R)-2-(5-cyclopropyl-3-((1-cyclopropylpiperidin-3-yl)amino)-1,2,4-triazin-6-yl)-5-ethynylphenol]",1,
"CC#Cc1ccc(-c2nnc(N[C@@H]3CCCN(CCO)C3)c(=O)n2C)c(O)c1 [Compound 33, (R)-3-(2-hydroxy-4-(prop-1-yn-1-yl)phenyl)-6-((1-(2-hydroxyethyl)piperidin-3-yl)amino)-4-methyl-1,2,4-triazin-5(4H)-one]",11.5,
"C#Cc1ccc(-c2nnc(N[C@@H]3CCCN(CCOC)C3)cc2C2CC2)c(O)c1 [Compound 240, (R)-2-(4-cyclopropyl-6-((1-(2-methoxyethyl)piperidin-3-yl)amino)pyridazin-3-yl)-5-ethynylphenol]",1.3,
"C#Cc1ccc(-c2nnc(N[C@@H]3CCCNC3)cc2C(F)(F)F)c(O)c1 [Compound 161, (R)-5-ethynyl-2-(6-(piperidin-3-ylamino)-4-trifluoromethylpyridazin-3-yl)phenol]",9.9,
"C#Cc1cc(C)c(-c2ccc(N[C@@H]3CCCN(C)C3)nn2)c(O)c1 [Compound 41, (R)-5-ethynyl-3-methyl-2-(6-((1-methylpiperidin-3-yl)amino)pyridazin-3-yl)phenol]",0.3,

# Continued, in another order:
IC50 [1] [nM],Compound,other results
0.8,"CC#Cc1ccc(-c2nnc(N[C@@H]3CCCN(C(C)CO)C3)cc2C)c(O)c1 (stereo partly drawn) [Compound 37, 2-(6-(((3R)-1-(1-hydroxypropan-2-yl)piperidin-3-yl)amino)-4-methylpyridazin-3-yl)-5-(prop-1-yn-1-yl)phenol]",
0.3,"C#Cc1ccc(-c2nnc(N[C@@H]3CCCN(C4CC4)C3)cc2C)c(O)c1 [Compound 94, (R)-2-(6-((1-cyclopropylpiperidin-3-yl)amino)-4-methylpyridazin-3-yl)-5-ethynylphenol]",
0.3,"Cc1cc(N[C@@H]2CCCN(C)C2)nnc1-c1ccc(C=C(F)F)cc1O [Compound 39, (R)-5-(2,2-difluorovinyl)-2-(4-methyl-6-((1-methylpiperidin-3-yl)amino)pyridazin-3-yl) phenol]",
12.7,"CC#Cc1ccc(-c2nnc(N[C@@H]3CCCN(CC(C)(C)O)C3)cc2C)c(O)c1 [Compound 36, (R)-2-(6-((1-(2-hydroxy-2-methylpropyl)piperidin-3-yl)amino)-4-methylpyridazin-3-yl)-5-(prop-1-yn-1-yl)phenol]",
12.8,"CC#Cc1ccc(-c2nnc(N[C@@H]3CCCN(C)C3)n3nccc23)c(O)c1 [Compound 40, (R)-2-(7-((1-methylpiperidin-3-yl)amino)pyrazolo[1,5-d][1,2,4]triazin-4-yl)-5-(prop-1-yn-1-yl)phenol]",
1.1,"C#Cc1ccc(-c2nnc(N[C@@H]3CCCN(CCO)C3)cc2C(F)(F)F)c(O)c1 [Compound 163, (R)-5-ethynyl-2-(6-((1-(2-hydroxyethyl)piperidin-3-yl)amino)-4-trifluoromethylpyridazin-3-yl)phenol]",
1.1,"Cc1cc(N[C@@H]2CCCN(C)C2)nnc1-c1ccc(C#CC(F)(F)F)cc1O [Compound 111, (R)-2-(4-methyl-6-((1-methylpiperidin-3-yl)amino)pyridazin-3-yl)-5-(3,3,3-trifluoroprop-1-yn-1-yl)phenol]",
1.1,"C#Cc1ccc(-c2nnc(N[C@@H]3CCCNC3)cc2C)c(O)c1 [Compound 139, (R)-5-ethynyl-2-(4-methyl-6-(piperidin-3-ylamino)pyridazin-3-yl)phenol]",
3.3,"CC#Cc1ccc(-c2nnc(N[C@@H]3CCCN(CCCO)C3)cc2C)c(O)c1 [Compound 35, (R)-2-(6-((1-(3-hydroxypropyl)piperidin-3-yl)amino)-4-methylpyridazin-3-yl)-5-(prop-1-yn-1-yl)phenol]",

# From patent US20260167637A1, “NLRP3 INFLAMMASOME INHIBITOR AND USE THEREOF” (TransThera Sciences (Nanjing), Inc., priority 2022, published 2026)
